Structures are written as SMILES.

Data set [1] relates to RAW 264.7 cells. The experiment in a line: Direct effects on RAW 264.7 cell viability (MTT). The data set is classed as cell-based, murine. As to the method:
The direct effects of CP and its analogues on RAW 264.7 viability were evaluated using the MTT method. RAW 264.7 cells were seeded at 1 × 10^4 cells/well (for 24 h incubation) and 5 × 10^3 cells/well (for 48 h incubation) and incubated overnight to allow adhesion. The culture medium was carefully aspirated and replaced with 100 μL DMEM plus 100 μL of test compound solutions, yielding final concentrations ranging from 3.25 to 30 µM (DMSO 1%, v/v). After 24 or 48 h of exposure to test compounds, cells were incubated with MTT (0.5 mg/mL) for 3 h. The resulting formazan crystals were dried, dissolved in DMSO, and absorbance was measured at 570 nm using a microplate reader (EL800, BioTek, Winooski, VT, USA). The precipitated purple formazan crystals were directly proportional to the number of metabolically active viable cells. The cell viability was then calculated as: Cell viability (%) = (Sample absorbance/Control absorbance) × 100. Data were expressed as mean of cell viability ± standard error of the mean from three to four independent experiments performed in triplicate.

In data set [2] the test system is Mycobacterium smegmatis mc2155. The experiment in a line: M. smegmatis susceptibility by CFU enumeration. It is filed as cell-based.
The test system of data set [3] is M. tuberculosis H37Ra. Nature of the data set: M. tuberculosis susceptibility by CFU enumeration. The data set is classed as cell-based, Mycobacterium tuberculosis. As to conditions: 0.03 μM, 48 h of treatment, positive control. As to the method: Next, CP, CA, and DE were diluted in Middlebrook 7H9 plus 10% OADC for the cellular susceptibility assay with M. tuberculosis H37Ra to yield concentrations up to 15 µM, 30 µM, and 15 µM, respectively. RIF at 0.03 µM was used as a positive control. The final DMSO concentration in all wells was 2.5%. The M. tuberculosis suspension was diluted in 7H9 plus 10% OADC to achieve an optical density of 0.006 at 595 nm, and 100 μL was then added to each well. Plates were covered, sealed with parafilm, and incubated at 37 °C for 48 h. After incubation, aliquots were removed, diluted, and plated in Middlebrook 7H10 agar plus 10% OADC. Plates were incubated at 37 °C for 4 weeks, and CFU were counted. CFU numbers were expressed as log10(CFU/mL).

For data set [4], the system named is M. smegmatis within RAW 264.7 macrophages. The experiment in a line: Therapeutic potential in M. smegmatis-infected RAW 264.7 cells (CFU). It is filed as cell-based, Mycobacterium smegmatis. As to conditions: 15, 7.5 and 3.25 µM, 24 h. As to the method:
For the first in vitro infection test with M. smegmatis, RAW 264.7 were seeded in 96-well culture plates at a density of 1 × 10^4 cells/well in DMEM medium (with 10% FBS, without antibiotics) and incubated overnight at 37 °C with 5% CO2 [20]. Infection of RAW 264.7 cells with M. smegmatis mc^2155 was performed at a multiplicity of infection of 1:1 for 2 h at 37 °C with 5% CO2. The medium with non-internalized bacteria was removed, and infected cells were then treated with the tested substances in DMEM: CP (15 µM, 7.5 µM and 3.25 µM), CA (30 µM, 15 µM, 7.5 µM and 3.25 µM), DE (15 µM, 7.5 µM and 3.25 µM), and DP (15 µM, 7.5 µM and 3.25 µM). Macrophages were lysed after 24 h with 0.1% Triton–X100, and these suspensions were diluted and plated on LB. CFU was determined after incubation of plates for 3 days at 37 °C. CFU numbers were expressed as log (CFU/well).

Consider `CC(C)COC(=O)/C1=C/c2c([nH]c3ccccc23)/C(C(=O)OCC(C)C)=C\c2c1[nH]c1ccccc21` [Diisobutyl, (6E,13E)-diisobutyl 5,12-dihydrocycloocta[1,2-b:5,6-b′]diindole-6,13-dicarboxylate], for which the “effect on RAW 264.7 cell viability” value in data set [1] (24 h incubation, 3.25 to 30 µM) is “affected cell viability at the three highest concentrations assessed”.
As to `CO[C@H]1/C=C/O[C@@]2(C)Oc3c(C)c(O)c4c(O)c(c(/C=N/N5CCN(C)CC5)c(O)c4c3C2=O)NC(=O)/C(C)=C\C=C\[C@H](C)[C@H](O)[C@@H](C)[C@@H](O)[C@@H](C)[C@H](OC(C)=O)[C@@H]1C` [RIF, Rifampicin, reference compound], in data set [2] (31 μM, 24 h of incubation, positive control), the “reduction of M. smegmatis CFU count” value is 3.41 log10. For the same compound, in data set [3], the “reduction of M. tuberculosis bacterial burden” value stood at 0.362 log10 CFU/mL.
`CCCCCOC(=O)/C1=C/c2c([nH]c3ccccc23)/C(C(=O)OCCCCC)=C\c2c1[nH]c1ccccc21` [diamyl, (6E,13E)-dipentyl 5,12-dihydrocycloocta[1,2-b:5,6-b′]diindole-6,13-dicarboxylate]: the “effect on RAW 264.7 cell viability” value in data set [1] (24 h incubation, 3.25 to 30 µM) was “affected cell viability at all concentrations assessed”.
For the compound `CCCOC(=O)/C1=C/c2c([nH]c3ccccc23)/C(C(=O)OCCC)=C\c2c1[nH]c1ccccc21` [DP, (6E,13E)-dipropyl 5,12-dihydrocycloocta[1,2-b:5,6-b′]diindole-6,13-dicarboxylate], the “effect on RAW 264.7 cell viability” value in data set [1] (24 h incubation, 3.25 to 30 µM) is recorded as “did not affect viability at any of the concentrations tested”; in data set [1] (48 h incubation) it was “did not affect cell viability at any concentration evaluated”. Besides, the “reduction of M. smegmatis viability” value in data set [2] (30 μM, 24 h incubation) is 0.639 log10 CFU. The “effect on intracellular M. smegmatis growth in RAW 264.7” value in data set [4] is given as “no inhibitory effect”.

The values are drawn from PMC11944515, “Host-Mediated Antimicrobial Effects and NLRP3 Inflammasome Modulation by Caulerpin and Its Derivatives in Macrophage Models of Mycobacterial Infections” (Microorganisms, 2025).
